Data from patent publication US5482954A, “Signal transduction inhibitor triazole and diazole compounds” (priority 1994, dated 1996).
Where two headings read alike, the source gives them in different places.

Experiments:
[1] = system: RMCE in endothelial cells; details: Merritt, et al.; cited from earlier work
[2] = system: RMCE in neutrophils; details: Merritt, et al.; cited from earlier work
[3] = system: voltage-gated L-type calcium channels in vascular smooth muscle cells; details: patch clamp; Merritt, et al.; cited from earlier work
[4] = system: RMCE in platelets; details: Merritt, et al.; cited from earlier work
[5] = system: A2058 cells; test: Colony formation (soft agar); assay type: cell-based, human; details: for COLONY FORMATION (% OF CONTROL): Table H, soft agar; for Colony Formation (% of Control): Table K
Protocol: Colony formation: Compound 1 was evaluated at three concentrations for inhibition of colony formation in both the A2058 and OVCAR3 cell lines. Colony number was determined in triplicate and compared to the vehicle control run on each 24 well plate to provide a percent. Colonies greater than 60 cells were counted at 100× under phase contrast. […] In a second study, selected compounds were evaluated for their effect on density-independent growth of the A2058 cell line in soft agar. Percent inhibition was determined over triplicate experiments involving three log molar concentrations of the test compound.

[6] = system: CHOm5 cells; test: Carbachol-stimulated 45Ca2+ influx; assay type: cell-based, Chinese hamster; set-up: % Inhibition of 45Ca2+ Influx into CHOm5 Cells: concentration or dose not given beside the values; details: Table I; carbachol-stimulated
Protocol: Calcium influx was determined using two methods. The first method involved the use of ^45 Ca^2+, while the second method utilized a fluorescent intracellular calcium chelator, Fura-2. The method using Fura-2 is semi-quantitative and is preferred for kinetic analysis and screening whereas the ^45 Ca^2+ method is quantitative.
CHOm5 cells in monolayer culture were washed free of serum-containing media and incubated with either carbachol or the calcium ionophore A23187 (from Molecular Probes, Eugene, Oreg., USA) in the presence of ^45 Ca^2+ and defined buffer (E2 medium with 0.1 mM MgCl2 and 1.0 mM CaCl2). After incubation for 5 min, the radioactive buffer was rapidly and repeatedly washed off with media containing LaCl3, a competitor of calcium efflux. The cell monolayer was solubilized and the calcium uptake was determined by scintillation counting.
Stimulated uptake of radiolabelled calcium was measured as described above. The abbreviations CTL and CC are control and carbachol-stimulated calcium influx values. respectively.

[7] = system: A2058 cells; test: Proliferation of A2058 cells (monolayer growth, crystal violet); assay type: cell-based, human; details: for activity at 10 µM: Homo sapiens, read-out: GROWTH (% OF CONTROL)
Protocol: For the clonogenic assay, aliquots of 50,000 cells per well (24 well plates) were grown under standard tissue culture conditions in the presence of increasing doses or test compound (0-10 μg/mL) or vehicle control. After 96 hr, the cells were gently washed with PBS, fixed, and stained with 0.5% crystal violet nuclear stain in 20% methanol. Excess stain was removed with tap water and bound stain was eluted with an equal volume solution of 01N sodium citrate (pH 4.2) and absolute ethanol. Optical density (O.D.) of eluted crystal violet stain was determined at 540 nm. The results of dose-dependent inhibition of tumor cell proliferation by compound 1 are shown in FIG. 5, in which the data are expressed as percent of untreated control cell proliferation for each cell type. The degree of inhibition varied with the cell type and was maximal (76%) for the A2058 cell line.
A2058 human melanoma cells were used to test the effect of compounds 1 and 3-25 on cellular proliferation. The cells were cultured in the presence of the test compounds (10 μM) for 96 hr. fixed and stained with crystal violet as described above. Growth inhibition was determined as a percent of control growth (using either DMSO or PEG-400 as the vehicle) for each compound. Each experiment was run a minimum of three times and the average of the results for each compound is provided in Table H and in FIGS. 20A and 20B.

[8] = system: CHOm5 cells; test: Carbachol-stimulated arachidonic acid release; assay type: cell-based, Chinese hamster; details: Table K
Source text: This example illustrates the effect of selected compounds on the release of arachidonic acid from carbachol-stimulated CHOm5 cells. Carbachol is a muscarinic agonist which in the muscarinic receptor transfected CHO cells stimulates the activation of phospholipase A2, resulting in arachidonic acid release and metabolism. Downstream metabolites of arachidonic acid, prostaglandins and leukotrienes are also second messengers.
The effect of compound 1 on arachidonic acid release from CHOm5 cells was determined by incubating the cells to isotopic equilibrium with labelled arachidonic acid, then washing the cells twice with 1 mL of serum-free media supplemented with 20 mM HEPES and 0.2% bovine serum albumin (fatty acid free) to trap the unincorporated labelled arachidonic acid, and then simultaneously adding carbachol (100 μM) and increasing concentrations of 1. After 15 min, the reaction was stopped by removing the incubation media which was then centrifuged at 10,000×g to eliminate any nonadherent cells.

[9] = system: 5R ras-transfected rat embryo fibroblasts; test: AMF-stimulated cell motility; assay type: cell-based; details: PT, 0.5 μg/ml for 2 hr
Protocol: (§1) The cell motility assay has been described. See, Stracke et al., Biochem. Biophys. Res. Comm., 146:339-345 (1987). Cells from the A2058 human melanoma line which was maintained in subconfluent culture were harvested with trypsin-EDTA, and were allowed to recover for 1 hr at room temperature. Cells from the 5R H-ras transformed (diploid) rat embryo fibroblast line were harvested with 2 mM EDTA in PBS without divalent cations. Cells were resuspended in serum-free media containing 0.1% BSA. This DMEM/0.1% BSA was used as the control for all subsequent assays. The assays were performed in triplicate using a 48-well chemotaxis chamber with 8μ Nucleopore, type IV collagen-coated filters. The chambers were incubated at 37° C. for 4 hr, stained and placed onto glass slides with the original cell side up so that the cell pellet could be wiped from the surface. Cells that had migrated through the pores were trapped between glass and membrane and could be quantitated by laser densitometry.
(§2) Compound 1 was preincubated with the cells for various periods of time, added at the start of the assay, or added later. Additionally, compound 1 remained present during the motility assay. The cells were assayed for their motile response to AMF. AMF stimulates random and directed locomotion of 5R ras-transfected rat embryo fibroblasts and A2058 human melanoma cells. […] Cell viability determined by trypan blue exclusion averaged greater than 96%. Cells exposed to various concentrations of compound 1 were tested for their response to AMF vs. control. Percent stimulated motility (in densitometer units) is defined as: […]
(§3) (AMF stimulated-control)Compound 1 /(AMF stimulated-control)untreated

[10] = system: A2058 human melanoma cells; test: AMF-stimulated cell motility; assay type: cell-based; details: PT, 0.5 μg/ml for 2 hr
Protocol: as §1, §2, §3

Molecule	COLONY FORMATION (% OF CONTROL) [5]	activity at 10 µM ([7]; A2058, Table H, 10 μM, 96 hr)	other results
COc1ccc(CCCOC(Cn2ccnc2)c2ccc(OC)cc2)cc1 (centres unmarked) [Compound 2]	–	–	inhibition of RMCE [1]: inhibits RMCE; inhibition of RMCE [2]: inhibits RMCE; block of voltage-gated L-type calcium channels [3]: blocks; inhibition of RMCE [4]: inhibits RMCE
NC(=O)c1nnn(Cc2cc(Cl)c(C(=O)c3ccc(Cl)cc3)c(Cl)c2)c1NC=O [Compound 3]	10.2 ± 0.5 % OF CONTROL	31.5 ± 7%	Colony Formation (% of Control) [5]: 10.2 ± 0.5 % of Control; % Inhibition of 45Ca2+ Influx into CHOm5 Cells [6]: 60%; dose dependent inhibition of proliferation ([7]; FIG. 20A, monolayer growth): Dose dependent inhibition of proliferation; Arachidonic Acid Release (% of Control) [8]: 13.1 ± 3 % of Control
CC(=O)Nc1c(C(N)=O)nnn1Cc1cc(Cl)c(C(=O)c2ccc(Cl)cc2)c(Cl)c1 [Compound 4]	10.3 ± 0.4 % OF CONTROL	53.7 ± 15%	Colony Formation (% of Control) [5]: 10.3 ± 0.4 % of Control; % Inhibition of 45Ca2+ Influx into CHOm5 Cells [6]: 41%; Arachidonic Acid Release (% of Control) [8]: 73.8 ± 5.9 % of Control
NC(=O)c1nnn(Cc2cc(Cl)c(C(=O)c3ccc(Cl)cc3)c(Cl)c2)c1NC(=O)c1ccccc1 [Compound 5]	9.97 ± 1 % OF CONTROL	39 ± 2%	Colony Formation (% of Control) [5]: 9.97 ± 1 % of Control; % Inhibition of 45Ca2+ Influx into CHOm5 Cells [6]: 61%; Arachidonic Acid Release (% of Control) [8]: 49.2 ± 12 % of Control
Nc1c(C(=O)O)nnn1Cc1cc(Cl)c(C(=O)c2ccc(Cl)cc2)c(Cl)c1 [Compound 6]	9.00 ± 1 % OF CONTROL	45.3 ± 11%	Colony Formation (% of Control) [5]: 9.00 ± 1 % of Control; % Inhibition of 45Ca2+ Influx into CHOm5 Cells [6]: 38%; Arachidonic Acid Release (% of Control) [8]: 49.6 ± 5 % of Control
O=C(c1ccc(Cl)cc1)c1c(Cl)cc(Cn2ccnc2)cc1Cl [Compound 7]	–	66.5 ± 9%	Arachidonic Acid Release (% of Control) [8]: 92.6 ± 7 % of Control
NC(=O)c1nc[nH]c1N [Compound 9]	–	97 ± 3%	–
O=C(O)c1nn[nH]c1C(=O)O [Compound 10]	100 ± 3 % OF CONTROL	92.2 ± 4%	–
NC(=O)c1nnn(Cc2cccc(F)c2)c1N [Compound 11]	–	89 ± 3%	–
NC(=O)c1nnn(Cc2cccc(Cl)c2)c1N [Compound 12]	–	85 ± 2%	–
NC(=O)c1nnn(Cc2cccc(Br)c2)c1N [Compound 13]	–	85.5 ± 13%	–
NC(=O)c1nnn(Cc2cccc(I)c2)c1N [Compound 14]	–	89 ± 6%	–
NC(=O)c1nnn(Cc2cc(Cl)cc(Cl)c2)c1N [Compound 15]	–	–	% Inhibition of 45Ca2+ Influx into CHOm5 Cells [6]: 0%
NC(=O)c1nnn(Cc2cc(F)cc(F)c2)c1N [Compound 16]	–	111 ± 8%	–
O=C(c1ccccc1)c1ccccc1 [Compound 17]	95.9 ± 3 % OF CONTROL	–	activity at 10 µM ([7]; A2058, 96 h): 98.5 ± 5%
O=C(c1ccccc1)c1ccc(F)cc1 [Compound 18]	93.0 ± 3.7 % OF CONTROL	94 ± 2%	–
O=C(c1ccccc1)c1ccc(Cl)cc1 [Compound 19]	94.3 ± 3.1 % OF CONTROL	110 ± 12%	–
O=C(c1ccccc1)c1ccc(Br)cc1 [Compound 20]	95.0 ± 1.4 % OF CONTROL	97 ± 24%	–
O=C(c1ccccc1)c1ccccc1Cl [Compound 21]	100 ± 5 % OF CONTROL	123 ± 5%	–
O=C(c1ccc(F)cc1)c1ccccc1Cl [Compound 23]	97.8 ± 5 % OF CONTROL	101 ± 0.5%	–
O=C(c1ccc(F)cc1)c1ccccc1F [Compound 24]	–	82 ± 7%	–
O=C(c1ccccc1O)c1ccccc1O [Compound 25]	95.3 ± 2 % OF CONTROL	98 ± 7%	–
O=C(c1ccc(Cl)cc1)c1c(Cl)cc(CO)cc1Cl [Compound 26]	100.3 ± 1.2 % OF CONTROL	101 ± 11%	% Inhibition of 45Ca2+ Influx into CHOm5 Cells [6]: ~ 10%
pertussis toxin [reference compound]	–	–	inhibition of AMF-stimulated motility by pertussis toxin [9]: markedly inhibited; inhibition of AMF-stimulated motility by pertussis toxin [10]: markedly inhibited
